The data set in a line: Human dose prediction (human PK parameter estimation). As to conditions: plasma, read-out: half-life, estimated (human) (converted).

Results on one molecule are retold here after US11236095B2 (priority 2007, dated 2022).

By half-life is commonly meant how long it takes for the measured level to halve.

Each structure is given as a SMILES string.

For `NC1(C(=O)N[C@@H](CCO)c2ccc(Cl)cc2)CCN(c2ncnc3[nH]ccc23)CC1` [Example 9, (S)-4-amino-N-(1-(4-chlorophenyl)-3-hydroxypropyl)-1-(7H-pyrrolo[2,3-d]pyrimidin-4-yl)piperidine-4-carboxamide], the half-life was around 6 h.
